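Dose response: 5 concentrations. Exposure: 48 h. Format: 96-well plates. Endpoint: linear interpolation; highest concentration if not reached. GI50 marks 50% less growth. TGI marks complete inhibition of growth.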
Experiments:
Assay in all cases: NCI tumour cell line growth inhibition, 48 h
M14 melanoma = tested on: M14 melanoma
HCT-15 colon = tested on: HCT-15 colon
SW-620 colon = tested on: SW-620 colon
786-0 renal = tested on: 786-0 renal
HS 578T breast = tested on: HS 578T breast
IGROV1 ovarian = tested on: IGROV1 ovarian
MDA-MB-231 breast = tested on: MDA-MB-231 breast
SF-539 CNS = tested on: SF-539 CNS
SNB-75 CNS = tested on: SNB-75 CNS
CAKI-1 renal = tested on: CAKI-1 renal
HCT-116 colon = tested on: HCT-116 colon
KM12 colon = tested on: KM12 colon
OVCAR-5 ovarian = tested on: OVCAR-5 ovarian
UACC-257 melanoma = tested on: UACC-257 melanoma
SK-MEL-5 melanoma = tested on: SK-MEL-5 melanoma
DU-145 prostate = tested on: DU-145 prostate
NCI/ADR-RES ovarian = tested on: NCI/ADR-RES ovarian
SNB-19 CNS = tested on: SNB-19 CNS
MCF7 breast = tested on: MCF7 breast
SF-295 CNS = tested on: SF-295 CNS
NCI-H460 lung = tested on: NCI-H460 lung
HCC-2998 colon = tested on: HCC-2998 colon
K-562 leukemia = tested on: K-562 leukemia
U251 CNS = tested on: U251 CNS
TK-10 renal = tested on: TK-10 renal
OVCAR-4 ovarian = tested on: OVCAR-4 ovarian
A549 NSCLC = tested on: A549 NSCLC
SK-MEL-28 melanoma = tested on: SK-MEL-28 melanoma
NCI-H522 lung = tested on: NCI-H522 lung
MALME-3M melanoma = tested on: MALME-3M melanoma
SF-268 CNS = tested on: SF-268 CNS
HL-60(TB) leukemia = tested on: HL-60(TB) leukemia
SK-OV-3 ovarian = tested on: SK-OV-3 ovarian
NCI-H23 lung = tested on: NCI-H23 lung
PC-3 prostate = tested on: PC-3 prostate
UACC-62 melanoma = tested on: UACC-62 melanoma
LOX IMVI melanoma = tested on: LOX IMVI melanoma
SN12C renal = tested on: SN12C renal
NCI-H226 lung = tested on: NCI-H226 lung
SR leukemia = tested on: SR leukemia
EKVX NSCLC = tested on: EKVX NSCLC
UO-31 renal = tested on: UO-31 renal
BT-549 breast = tested on: BT-549 breast
SK-MEL-2 melanoma = tested on: SK-MEL-2 melanoma
CCRF-CEM leukemia = tested on: CCRF-CEM leukemia
HOP-62 NSCLC = tested on: HOP-62 NSCLC
HT29 colon = tested on: HT29 colon
HOP-92 NSCLC = tested on: HOP-92 NSCLC
RXF 393 renal = tested on: RXF 393 renal
A498 renal = tested on: A498 renal
COLO 205 colon = tested on: COLO 205 colon
MDA-MB-435 = tested on: MDA-MB-435
RPMI-8226 leukemia = tested on: RPMI-8226 leukemia
T-47D breast = tested on: T-47D breast
ACHN renal = tested on: ACHN renal

## O=C(CNc1nc(-c2cccc([N+](=O)[O-])c2)cs1)Nc1cccc([N+](=O)[O-])c1
M14 melanoma
  GI50: 1.48 µM
  TGI: 3.06 µM
HCT-15 colon
  GI50: 0.582 µM
  TGI: 2.81 µM
SW-620 colon
  GI50: 0.372 µM
  TGI: 2.01 µM
786-0 renal
  GI50: 1.94 µM
  TGI: 4.88 µM
HS 578T breast
  GI50: 1.6 µM
  TGI: 5.28 µM
IGROV1 ovarian
  GI50: 0.333 µM
  TGI: 1.33 µM
MDA-MB-231 breast
  GI50: 2.11 µM
  TGI: 4.56 µM
SF-539 CNS
  GI50: 1.53 µM
  TGI: 3.49 µM
SNB-75 CNS
  GI50: 1.07 µM
  TGI: 2.35 µM
CAKI-1 renal
  GI50: 0.715 µM
  TGI: 2.6 µM
HCT-116 colon
  GI50: 1.24 µM
  TGI: 3.18 µM
KM12 colon
  GI50: 1.36 µM
  TGI: 3.09 µM
OVCAR-5 ovarian
  GI50: 0.542 µM
  TGI: 2.37 µM
UACC-257 melanoma
  GI50: 1.95 µM
  TGI: 5.08 µM
SK-MEL-5 melanoma
  GI50: 1.79 µM
  TGI: 3.24 µM
DU-145 prostate
  GI50: 2.02 µM
  TGI: 4.79 µM
NCI/ADR-RES ovarian
  GI50: 1.47 µM
  TGI: 4.59 µM
SNB-19 CNS
  GI50: 2.22 µM
  TGI: 6.44 µM
MCF7 breast
  GI50: 0.942 µM
  TGI: 4.61 µM
SF-295 CNS
  GI50: 2.12 µM
  TGI: 5.47 µM
NCI-H460 lung
  GI50: 1.04 µM
  TGI: 2.76 µM
HCC-2998 colon
  GI50: 1.78 µM
  TGI: 3.48 µM
K-562 leukemia
  GI50: 1.03 µM
  TGI: > 100 µM
U251 CNS
  GI50: 1.71 µM
  TGI: 5 µM
TK-10 renal
  GI50: 1.53 µM
  TGI: 5.82 µM
OVCAR-4 ovarian
  GI50: 2.09 µM
  TGI: 5.07 µM
A549 NSCLC
  GI50: 2.63 µM
  TGI: 9.09 µM
SK-MEL-28 melanoma
  GI50: 1.49 µM
  TGI: 3.08 µM
NCI-H522 lung
  GI50: 1.33 µM
  TGI: 2.9 µM
MALME-3M melanoma
  GI50: 1.58 µM
  TGI: 3.18 µM
SF-268 CNS
  GI50: 1.69 µM
  TGI: 3.35 µM
HL-60(TB) leukemia
  GI50: 2.08 µM
  TGI: 7.73 µM
SK-OV-3 ovarian
  GI50: 0.871 µM
  TGI: 2.41 µM
NCI-H23 lung
  GI50: 0.404 µM
  TGI: 1.76 µM
PC-3 prostate
  GI50: 0.593 µM
  TGI: 2.66 µM
UACC-62 melanoma
  GI50: 0.662 µM
  TGI: 2.03 µM
LOX IMVI melanoma
  GI50: 0.577 µM
  TGI: 2.04 µM
SN12C renal
  GI50: 1.74 µM
  TGI: 5.03 µM
NCI-H226 lung
  GI50: 1.04 µM
  TGI: 3.32 µM
SR leukemia
  GI50: 0.419 µM
  TGI: > 100 µM
EKVX NSCLC
  GI50: 2.06 µM
  TGI: 4.74 µM
UO-31 renal
  GI50: 1.29 µM
  TGI: 2.67 µM
BT-549 breast
  GI50: 0.627 µM
  TGI: 2.21 µM
SK-MEL-2 melanoma
  GI50: 1.79 µM
  TGI: 3.31 µM
CCRF-CEM leukemia
  GI50: 0.446 µM
  TGI: > 100 µM
HOP-62 NSCLC
  GI50: 1.98 µM
  TGI: 4.13 µM
HT29 colon
  GI50: 0.744 µM
  TGI: 2.29 µM
HOP-92 NSCLC
  GI50: 1.7 µM
  TGI: 4 µM
RXF 393 renal
  GI50: 0.522 µM
  TGI: 2.07 µM
A498 renal
  GI50: 1.3 µM
  TGI: 2.58 µM
COLO 205 colon
  GI50: 1.28 µM
  TGI: 2.85 µM
MDA-MB-435
  GI50: 1.65 µM
  TGI: 3.07 µM
RPMI-8226 leukemia
  GI50: 1.47 µM
  TGI: 4.32 µM
T-47D breast
  GI50: 1.91 µM
  TGI: 4.87 µM
ACHN renal
  GI50: 1.3 µM
  TGI: 2.63 µM
